IC50 data for 14 molecules are collected here from patent publication US12581252B2, “Substituted pyrrolo[3,4-b]pyridines as PI3K-α inhibitors” (Relay Therapeutics, Inc., priority 2020, dated 2026).

pIC50: −log10 of the molar value.

Experiment [1] concerns the target H1047R PIK3CA enzyme (Homo sapiens, UniProt P42336, H1047R). The experiment in a line: ADP-Glo Biochemical PIK3CA Kinase Assay. A general note: ADP-Glo turns the ADP formed in a reaction into a luminescent signal.
A short description of experiment [2]: cells. The settings on record: Homo sapiens, MCF-10A, read-out: MCF10A IC50.

Chain of H1047R PIK3CA enzyme (P42336 whole entry H1047R): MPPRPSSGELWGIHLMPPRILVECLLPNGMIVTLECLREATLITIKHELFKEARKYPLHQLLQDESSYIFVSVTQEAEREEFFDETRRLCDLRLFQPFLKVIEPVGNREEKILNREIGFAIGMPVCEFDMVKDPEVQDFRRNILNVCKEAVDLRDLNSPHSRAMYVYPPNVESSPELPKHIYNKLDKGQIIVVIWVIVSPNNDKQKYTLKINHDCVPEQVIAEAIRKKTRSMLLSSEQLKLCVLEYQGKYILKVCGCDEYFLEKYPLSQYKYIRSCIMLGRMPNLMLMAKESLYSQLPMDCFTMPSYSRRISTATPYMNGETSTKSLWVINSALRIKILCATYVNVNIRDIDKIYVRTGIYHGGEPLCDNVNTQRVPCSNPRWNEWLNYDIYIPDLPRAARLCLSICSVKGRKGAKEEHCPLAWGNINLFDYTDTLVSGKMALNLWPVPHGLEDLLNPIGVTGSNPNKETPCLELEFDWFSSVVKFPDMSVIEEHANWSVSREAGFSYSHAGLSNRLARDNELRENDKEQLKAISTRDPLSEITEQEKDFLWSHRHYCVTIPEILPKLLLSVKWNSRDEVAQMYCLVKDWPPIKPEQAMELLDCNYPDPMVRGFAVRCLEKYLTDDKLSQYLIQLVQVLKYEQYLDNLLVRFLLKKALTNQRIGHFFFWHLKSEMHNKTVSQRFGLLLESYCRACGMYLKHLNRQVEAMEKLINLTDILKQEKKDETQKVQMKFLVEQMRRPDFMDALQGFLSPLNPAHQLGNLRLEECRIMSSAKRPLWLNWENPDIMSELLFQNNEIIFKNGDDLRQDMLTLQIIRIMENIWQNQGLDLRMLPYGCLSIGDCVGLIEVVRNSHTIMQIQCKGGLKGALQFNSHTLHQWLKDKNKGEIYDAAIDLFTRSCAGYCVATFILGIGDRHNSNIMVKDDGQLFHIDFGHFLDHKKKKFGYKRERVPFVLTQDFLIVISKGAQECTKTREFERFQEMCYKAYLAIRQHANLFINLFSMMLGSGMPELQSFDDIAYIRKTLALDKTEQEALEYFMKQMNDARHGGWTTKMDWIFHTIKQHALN
Chain of H1047R PIK3CA enzyme (P27986 whole entry partner): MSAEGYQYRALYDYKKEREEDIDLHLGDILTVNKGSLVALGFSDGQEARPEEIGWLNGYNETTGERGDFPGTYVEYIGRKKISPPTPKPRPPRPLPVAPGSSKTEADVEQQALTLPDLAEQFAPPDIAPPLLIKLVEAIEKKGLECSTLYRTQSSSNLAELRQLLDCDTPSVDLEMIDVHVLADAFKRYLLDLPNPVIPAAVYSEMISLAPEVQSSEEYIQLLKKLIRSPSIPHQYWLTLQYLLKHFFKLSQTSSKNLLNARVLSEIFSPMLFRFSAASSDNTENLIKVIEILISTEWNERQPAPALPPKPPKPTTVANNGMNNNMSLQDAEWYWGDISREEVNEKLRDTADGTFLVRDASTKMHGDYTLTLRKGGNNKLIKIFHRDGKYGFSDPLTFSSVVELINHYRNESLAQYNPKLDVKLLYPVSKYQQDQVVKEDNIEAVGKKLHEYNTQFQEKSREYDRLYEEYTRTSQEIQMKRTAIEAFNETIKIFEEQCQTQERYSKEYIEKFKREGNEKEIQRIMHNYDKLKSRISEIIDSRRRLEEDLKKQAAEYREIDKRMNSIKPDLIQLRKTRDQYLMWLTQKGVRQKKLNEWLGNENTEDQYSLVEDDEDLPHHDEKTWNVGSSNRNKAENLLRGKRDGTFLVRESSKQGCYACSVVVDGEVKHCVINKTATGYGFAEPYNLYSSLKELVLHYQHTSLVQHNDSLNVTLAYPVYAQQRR

As a reminder, the pIC50 is the IC50 on a negative log10 scale, so that one unit is a factor of ten. As for `Cc1ccccc1C1NC(=O)c2cc(Br)cc(NC(=O)c3cc(F)cc(C(F)(F)F)c3)c21` (stereo not shown) [Compound I-54], the pIC50 was 6.30 to 7.00 in experiment [1] and 5.30 to 6.00 in experiment [2].
In the same order, the values of `O=C1N[C@@H](c2cc(F)ccc2Cl)c2c(Nc3nccc4c(C(F)(F)F)cc(F)cc34)cc(Br)cc21` [Compound I-1109] are at least 7.00 and over 6.00.
As for `C=Cc1cc(NC(=O)c2csc3ccccc23)c2c(c1)C(=O)NC2c1ccccc1C` (stereo not shown) [Compound I-100, N-[6-Ethenyl-3-(2-methylphenyl)-1-oxo-2,3-dihydro-1H-isoindol-4-yl]-1-benzothiophene-3-carboxamide], the pIC50 in experiment [1] was at least 7.00; in experiment [2] it was 5.00 to 5.30.
For `Cn1nccc1Nc1cc(NC(=O)c2cc(F)cc(C(F)(F)F)c2)c2c(c1)C(=O)NC2c1cc(F)ccc1Cl` (stereo not shown) [Compound I-922], the results for the pIC50 in experiment [1] and in experiment [2] were at least 7.00 and over 6.00, respectively.
In the same order, the values of `O=C(Nc1cc(-c2cnn(C(F)F)c2)cc2c1[C@H](c1cc(F)ccc1Cl)NC2=O)c1cc(F)cc(C(F)(F)F)c1` (single isomer, unassigned) [Compound I-1740] are at least 7.00 and over 6.00.
In the same order, the values of `C#Cc1ccccc1-c1cc(NC(=O)c2cc(F)cc(C(F)(F)F)c2)c2c(c1)C(=O)NC2c1cc(F)ccc1Cl` (stereo not shown) [Compound I-1163] are at least 7.00 and over 6.00.
In the same order, the values of `NCc1cc(NC(=O)N2CC(O)(C(F)(F)F)c3cc(F)ccc32)c2c(c1)C(=O)NC2c1cc(F)ccc1Cl` (stereo not shown) [Compound I-2568] are at least 7.00 and 4.44 to 5.00.
With `O=C(Nc1cc(OCCO)cc2c1C(c1cc(F)ccc1Cl)NC2=O)c1cc(F)cc(C(F)(F)F)c1` (stereo not shown) [Compound I-1064], the figures for the pIC50 in experiment [1] and in experiment [2] were at least 7.00 and over 6.00, respectively.
In the same order, the values of `[2H]C1([2H])N(C(=O)Nc2cccc3c2[C@H](c2cc(F)ccc2Cl)NC3=O)c2ccc(F)cc2[C@]1(O)C(F)(F)F` (single isomer, unassigned) [Compound I-2595] are at least 7.00 and over 6.00.
In the same order, the values of `Cc1ccccc1C1NC(=O)c2cccc(NC(=O)N3CCc4ccccc43)c21` (stereo not shown) [Compound I-43, N-[3-(2-methylphenyl)-1-oxo-2,3-dihydro-1H-isoindol-4-yl]-2,3-dihydro-1H-indole-1-carboxamide] are at least 7.00 and 5.30 to 6.00.
In the same order, the values of `NCCc1cc(NC(=O)N2C[C@H](O)c3cc(F)ccc32)c2c(c1)C(=O)N[C@@H]2c1cc(F)ccc1Cl` (single isomer, unassigned) [Compound I-2443] are at least 7.00 and 4.44 to 5.00.
Take `N#Cc1cc(NC(=O)N2C[C@](O)(C(F)(F)F)c3cc(F)ccc32)c2c(c1)C(=O)N[C@@H]2c1cc(F)ccc1Cl` (single isomer, unassigned) [Compound I-2562]: the pIC50 in experiment [1] is at least 7.00; in experiment [2], over 6.00.
In the same order, the values of `O=C1N[C@H](c2cc(F)ccc2Cl)c2c(NC(=O)N3C[C@H](O)c4cc(F)ccc43)cc(-c3ccc(=O)n(C(F)F)c3)cc21` (single isomer, unassigned) [Compound I-2448] are at least 7.00 and 5.30 to 6.00.
In the same order, the values of `N#CC1(COc2cc(NC(=O)N3C[C@@H](O)c4cc(F)ccc43)c3c(c2)C(=O)N[C@@H]3c2cc(F)ccc2Cl)CC1` (single isomer, unassigned) [Compound I-2552] are at least 7.00 and 5.30 to 6.00.
